Experimental data taken from patent publication US9878984B2, “Anti-cancer compounds” (NORTHWESTERN UNIVERSITY, priority 2008, dated 2018).

How the values were obtained:
[1] = system: Normal cells (PBMC, HUVEC, and WI-38); experiment: Cancer cell selective growth inhibition (cancer cells vs normal cells); type: cell-based, human; details: 72 hr MTS
Method: […] Peripheral blood mononuclear cells (PBMCs) were voluntarily collected from a healthy laboratory worker by standard sterile phlebotomy techniques and isolated using Vacutainer CPT collection tubes (BD Biosciences—Bedford, Mass.). PBMCs were isolated freshly for each experiment. All DMEM and RPMI-1640 media was supplemented with 10% FBS (Atlanta Biologicals—Lawrenceville, Ga.) and 100 U/mL penicillin and streptomycin (Invitrogen). HUVEC (Human umbilical vein endothelial cells) were cultured in EGM-2 media with supplements provided in the manufacturers BulletKit (Lonza—Walersville, Md.). All cells were maintained at 37° C. and in a 5% CO2 atmosphere.
Growth Inhibition Assays: HeLa, MDA-MB-231, PC-3M, WI-38, and HUVEC cells were plated at 5,000 cells per well in 96 well plates and allowed to attach for 20 hr (8 hr for HeLa). The media was removed and 198 μL of fresh media was added to each well. […] PBMCs were isolated and plated at 100,000 per well in 96 well plates with a volume of 197 μL. They were allowed to settle in the media for 20 hr, at which point 1 μL of 1 mg/mL phytohemagglutinin (Sigma—St. Loius Mo.) in PBS was added to stimulate proliferation (final concentration of 5 μg/mL). […] Cell proliferation was measured at t=0 (time at start of treatment) and t=72 hr using MTS AQueous non-radioactive proliferation assay (Promega—Madison, Wis.). This assay utilizes the metabolic conversion of yellow tetrazolium to a purple formazan by live cells and the color change is proportional to the number of cells. […] The absorbance at 490 nm in each well was read with a Spectramax 250 plate reader (Molecular Devices—Sunnyvale, Calif.). […] Data were fit to one site dose response curves in order to obtain specific growth inhibitory concentrations and the relative standard errors of the mean for these concentrations were calculated by the XLfit4 software. Statistical significance (p value) for the selectivity and all subsequent assays was determined with the two tailed homoscedastic Student's t-test. […]

pBR322 plasmid DNA = experiment: DNA intercalation assay (topoisomerase I based plasmid DNA unwinding); type: biochemical; details: 10, 31.6, and 100 μM, human topoisomerase I
Method: DNA Intercalation Assay: A DNA unwinding assay was performed as previously described with minor modifications. Four Units of recombinant wild type human topoisomerase I (Topogen—Port Orange, Fla.) were incubated with reaction buffer (included with enzyme), ˜0.5 μg of pBR322 plasmid DNA, which is a mixture of form I and form II plasmid DNA, and water added to a final volume of 19 μL. The reactions were incubated at 37° C. for 30 min and then 1 μL of each compound was added to give a final concentration of 10, 31.6, and 100 μM (final solvent concentration of 1% DMSO) and the reaction mixture was incubated at 37° C. for another 30 min. The reaction was stopped by the addition of 5 μL gel loading dye. The samples were immediately loaded onto a 1% agarose gel and electrophoresis was performed at 50 V for 3 h at room temperature. Pictures of the gels were obtained using a Kodak Image Station 440 CF (Kodak—Rochester, N.Y.) equipped with a UV source.
This activity depends on the ability of these compounds to intercalate DNA, which is the proposed mechanism of cytotoxic action of amonafide and its analogs. Therefore, the intercalation of plasmid DNA by A1-A9 was compared with the intercalation by amonafide to determine if they behave similarly. A topoisomerase I (topo I) based plasmid DNA unwinding assay was used to determine the intercalation of each compound [1]. […]

[2] = system: HeLa, PC-3M, and MDA-MB-231; experiment: MTS growth inhibition assay, human cancer cell lines; type: cell-based; details: 72 hr, MTS proliferation assay
Method: Cell Culture: HeLa (cervical carcinoma), WI-38 (normal human […] fibroblasts), and MDA-MB-231 (breast carcinoma), cells were cultured in DMEM (Invitrogen—Carlsbad, Calif.) and PC-3M (metastatic prostate carcinoma) cells were cultured in RPMI-1640. Peripheral blood mononuclear cells (PBMCs) were voluntarily collected from a healthy laboratory worker by standard sterile phlebotomy techniques and isolated using Vacutainer CPT collection tubes (BD Biosciences—Bedford, Mass.). PBMCs were isolated freshly for each experiment. All DMEM and RPMI-1640 media was supplemented with 10% FBS (Atlanta Biologicals—Lawrenceville, Ga.) and 100 U/mL penicillin and streptomycin (Invitrogen). […]
Growth Inhibition Assays: HeLa, MDA-MB-231, PC-3M, WI-38, and HUVEC cells were plated at 5,000 cells per well in 96 well plates and allowed to attach for 20 hr (8 hr for HeLa). […] Cell proliferation was measured at t=0 (time at start of treatment) and t=72 hr using MTS AQueous non-radioactive proliferation assay (Promega—Madison, Wis.). […] The absorbance at 490 nm in each well was read with a Spectramax 250 plate reader (Molecular Devices—Sunnyvale, Calif.). […] Data were fit to one site dose response curves in order to obtain specific growth inhibitory concentrations and the relative standard errors of the mean for these concentrations were calculated by the XLfit4 software. […]

Chk2 = experiment: DNA damage response assay (pThr68-Chk2 / total Chk2 western blot); type: cell-based, human; details: HeLa cells, [GI99%], 20 hr, normalized to mitoxantrone
Method: DNA Damage Response Assay: 250,000 HeLa cells were plated in 35 mm culture dishes and allowed to attach for 8 hr and were then treated with the [GI99%] of each compound for 20 hr (total media volume was […] with 1% DMSO). After treatment cells were lysed in 150 μL detergent buffer containing 1:100 v/v protease inhibitor cocktail (Sigma—St. Louis, Mo.). Lysates were run on denaturing 12% acrylamide gels and transferred to nitrocellulose membranes. The membranes were blocked in blotto, incubated in anti-pThr68-Chk2 antibody (Cell Signaling—Danvers, Mass.) at 1:500 v/v dilution in blotto overnight 4° C., washed, incubated in HRP conjugated anti-rabbit secondary antibody (Jackson) at 1:5,000 v/v dilution in blotto for 1 hr, and then developed. The membranes were then stripped with a reducing buffer, blocked in blotto, incubated in anti-Chk2 antibody (Biolegend—San Diego, Calif.) at 1:500 v/v dilution in blotto overnight at 4° C., washed, incubated in HRP conjugated anti-mouse secondary antibody (Jackson) at 1:5,000 v/v dilution in blotto for 1 hr, and then developed. Membranes were developed with PicoWest Developing Solution (Pierce) and exposed to film. The intensities of bands were quantified as described in the previous section. The data are expressed as the average ratio of pThr68-Chk2 to total Chk2 as normalized to the mitoxantrone control in each of three independent experiments.
Topoisomerase inhibition by most mechanisms should cause activation of DNA damage response pathways because of the production of single and double strand DNA breaks, as is the case with amonafide. […] Therefore, measuring the DNA damage response at a fixed cytotoxic dose ([GI99%]) will determine the extent that DNA damage contributes to the cytotoxicity of these compounds. […] Activation of Chk2 was determined by measuring the ratio of pThr68-Chk2 to total Chk2 in HeLa cells treated with the [GI99%].

HeLa cells = experiment: Transwell invasion assay; type: cell-based, human; details: [GI99%], matrigel, 20 hr
Method: Transwell Invasion Assay: HeLa cells were plated at 250,000 per 35 mm well and allowed to attach for 8 hr. The cells were washed with PBS and then treated for 4 hr with the [GI99%] of each compound (or 1% DMSO—vehicle control) in serum free media to decrease the number of invading cells in the beginning of the experiment due to a preliminary lack of drug exposure. The cells were then trypsinized and counted by trypan blue exclusion with a hemacytometer (Sigma—St. Louis, Mo.). Eight micron pore size control well inserts for 12 well plates (BD Biosciences) were coated with 100 μL 1 mg/mL matrigel (Sigma—St. Louis, Mo.) and allowed to solidify at room temperature for 1 hr. The excess matrigel was aspirated and the inserts were gently washed with PBS. The cells were seeded at a density of 300,000 per insert well in a volume of 500 μL serum free media containing a derivative or vehicle. The inserts were then placed in wells containing 700 μL serum free media with the respective compound. After 20 hr the cells on the top of the membranes were gently removed with a cotton swab, the membranes then were fixed in methanol for 1 min, stained in Gills No. 3 Hematoxylin (Sigma—St. Louis, Mo.) for 5 min, rinsed in tap water, and allowed to dry overnight. The membranes were excised, mounted on slides, and the cells were counted under the 40× objective of a bright field microscope. The data are expressed as the average total number of invading cells counted in 20 fields of each membrane, as standardized to the vehicle control, from six experiments.
Effect of derivatives on the malignant phenotype—invasion assay: If A1-A9 have differential targets, DNA binding specificity, or downstream effects they may differentially alter the malignant behavior of cells. Also, anti-cancer compounds can be efficacious against tumors in other ways besides inhibiting growth and inducing death of cancer cells; they can also alter the behavior of malignant cells. Therefore, the ability of A1-A9 and amonafide to alter the invasive behavior of cancer cells in a transwell (also known as Boyden chamber) invasion assay was evaluated, which determines the ability of cells to migrate through a proteinacious gel. This behavior is considered to be representative of cancer cell invasion through the basement membrane of the primary tumor environment. In this assay, treated cells are seeded on to the top of the matrigel-coated porous membrane, allowed to invade through the proteinacious gel onto the underside of the membrane, and then counted.

Row | SMILES | cancer cell selective growth inhibition (selectivity) [1] | DNA intercalation (pBR322 plasmid DNA) | growth inhibition potency [2] | DNA damage response (ratio of pThr68-Chk2 to total Chk2) (Chk2) | invasive behavior (% invading cells vs vehicle) (HeLa cells)
1 | CCCCCCNc1ccc2c3c(cccc13)C(=O)N(CCN(C)C)C2=O [A5, 6-hexylamino-2-[2-(dimethylamino)ethyl]-1H-benz[de]isoquinoline-1,3(2H)-dione] | doing so significantly (p<0.05) | intercalates much less than the other compounds |  |  | 
2 | CN(C)CCN1C(=O)c2cccc3cccc(c23)C1=O [A9, 2-[2-(dimethylamino)ethyl]-1H-benz[de]isoquinoline-1,3(2H)-dione] |  |  | still remains fairly potent | evoked the strongest DNA damage response | decreases invasive behavior
